A word on the pIC50: it is −log10 of the IC50, conventionally taken in molar units.

One experiment deals with T1, D816V Kit (Homo sapiens, UniProt P10721, D816V).
T1 construct: purchased Carna Bioscience 08-156
The experiment is described as follows: Kit D816V assay at Km (Caliper electrophoretic mobility shift). The settings on record: D816V Kit 0.5 nM, 15 uM ATP (Km), 1 uM Srctide, 25 C, 90 minutes; read-out: Biochemical Activity D816V IC50. As to the method:
In order to assess the activity of chemical compounds against the relevant kinase of interest, the Caliper LifeSciences electrophoretic mobility shift technology platform is used. Fluorescently labeled substrate peptide is incubated in the presence of kinase and ATP so that a […] proportion of the peptide is phosphorylated. At the end of the reaction, the mix of phosphorylated (product) and non-phosphorylated (substrate) peptides are passed through the microfluidic system of the Caliper EZ Reader 2, under an applied potential difference. The presence of the phosphate group on the product peptide provides a difference in mass and charge between those of the substrate peptide, resulting in a separation of the substrate and product pools in the sample. As the pools pass a LEDS within the instrument, these pools are detected and resolved as separate peaks. The ratio between these peaks therefore reflects the activity of the chemical matter at that concentration in that well, under those conditions.
Kit D816V assay at Km: In each well of a 384-well plate, 0.04 ng/ul (0.5 nM) of D816V Kit (Carna Bioscience 08-156) was incubated in a total of 12.5 ul of buffer (100 mM HEPES pH 7.5, 0.015% Brij 35, 10 mM MgCl2, 1 mM DTT) with 1 uM Srctide (5-FAM-GEEPLYWSFPAKKK-NH2) and 15 uM ATP at 25 C for 90 minutes in the presence or absence of a dosed concentration series of compound (1% DMSO final concentration). The reaction was stopped by the addition of 70 ul of Stop buffer (100 mM HEPES pH 7.5, 0.015% Brij 35, 35 mM EDTA and 0.2% of Coating Reagent 3 (Caliper Lifesciences)). The plate was then read on a Caliper EZReader 2 (protocol settings:—1.9 psi, upstream voltage—700, downstream voltage—3000, post sample sip 35s). Data was normalized to 0% and 100% inhibition controls and the IC50 or EC50 calculated using a 4-parameter fit using GraphPad Prism.

Experiment [1] has as its target T2, Kit D816V in HMC1.2 cells (Homo sapiens, UniProt P10721, D816V/V560G).
T2 construct: endogenous in cells; host or cells: HMC1.2
The experiment is described as follows: HMC1.2 autophosphorylation assay (Kit autophosphorylation at tyrosine 719, AlphaLISA). The experiment is classed as cell-based. The settings on record: HMC1.2 mast cell leukemia cells (Kit V560G and D816V), phospho-Y719 c-Kit, 90 minutes; read-out: Cellular Activity IC50. As to the method:
10,000 HMC1.2 cells were incubated in 22 ul culture media (phenol-red free IMDM, no serum) in each well of a 384-well plate and serum starved overnight in a tissue culture incubator (5% CO2, 37° C.). A 10-point dose concentration series of compound (25 uM-95.4 pM) were then added to the cells in a volume of 3.1 ul to each well (0.25% DMSO final concentration). After 90 minutes, 6 ul of 5× AlphaLISA Lysis Buffer (Perkin Elmer) supplemented with a protease and phosphatase inhibitor cocktail (Cell Signaling Technologies) was added to each well and shaken at 450 rpm for 15 minutes at 4° C. 10 ul of phospho-Y719 c-Kit and total c-Kit antibodies (15 nM final concentration, Cell Signaling Technologies) and 50 ug/ml AlphaLISA rabbit acceptor beads (Perkin Elmer) were added to each well and shaken at 300 rpm at room temperature for 2 hours. 10 ul of 100 ug/ml streptavidin donor beads (Perkin Elmer) were added to each well, blocked from light with aluminum adhesive and shaken at 300 rpm at room temperature for 2 hours. Fluorescence signal was obtained on Envision (Perkin Elmer) by AlphaScreen 384 well HTS protocol. Data was normalized to 0% and 100% inhibition controls and the IC50 was calculated using Four Parameter Logistic IC50 curve fitting.
This cell line contains Kit mutated at positions V560G and D816V resulting in constitutive activation of the kinase. The following compounds were tested in an assay to measure direct inhibition of Kit D816V kinase activity by assaying Kit autophosphorylation at tyrosine 719 on the Kit protein.
Background: In Alpha technology, singlet oxygen from a donor bead excites a nearby acceptor bead.

pIC50: −log10 of the molar value.

T2 sequence (P10721 26-976 V560G/D816V): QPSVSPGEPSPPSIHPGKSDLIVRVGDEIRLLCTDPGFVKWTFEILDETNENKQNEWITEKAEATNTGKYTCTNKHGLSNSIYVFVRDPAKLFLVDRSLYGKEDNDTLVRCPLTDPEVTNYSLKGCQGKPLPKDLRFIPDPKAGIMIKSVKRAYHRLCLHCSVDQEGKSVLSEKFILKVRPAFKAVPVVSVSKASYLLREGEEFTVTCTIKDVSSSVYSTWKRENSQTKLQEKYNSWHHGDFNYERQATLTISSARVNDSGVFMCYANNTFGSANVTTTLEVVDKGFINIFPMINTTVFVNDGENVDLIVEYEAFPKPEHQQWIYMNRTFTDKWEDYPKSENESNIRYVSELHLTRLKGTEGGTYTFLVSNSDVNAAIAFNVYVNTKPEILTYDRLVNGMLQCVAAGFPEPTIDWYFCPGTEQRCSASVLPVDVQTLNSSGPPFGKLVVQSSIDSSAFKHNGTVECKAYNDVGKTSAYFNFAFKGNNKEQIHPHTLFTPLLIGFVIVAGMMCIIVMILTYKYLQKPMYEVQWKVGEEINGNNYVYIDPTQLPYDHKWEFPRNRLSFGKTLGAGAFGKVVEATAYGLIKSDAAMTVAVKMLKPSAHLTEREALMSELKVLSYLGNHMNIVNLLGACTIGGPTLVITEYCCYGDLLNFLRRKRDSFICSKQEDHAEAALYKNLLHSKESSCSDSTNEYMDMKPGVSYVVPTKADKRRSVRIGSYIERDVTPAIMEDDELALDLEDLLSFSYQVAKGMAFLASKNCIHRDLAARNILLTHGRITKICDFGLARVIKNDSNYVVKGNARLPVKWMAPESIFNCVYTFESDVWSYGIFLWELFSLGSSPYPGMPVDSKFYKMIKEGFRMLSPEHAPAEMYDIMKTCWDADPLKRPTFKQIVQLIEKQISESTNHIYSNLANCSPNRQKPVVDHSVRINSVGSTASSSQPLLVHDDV
T1 sequence (P10721 26-976 D816V): as the sequence (P10721 26-976 V560G/D816V) above, with G535V counted along it

For the molecule `Cn1cc(-c2cc3c(-c4ccc(NS(=O)(=O)CC5COCCO5)cc4)ncnn3c2)cn1` (stereo not shown) [Compound 25], the pIC50 on D816V Kit is 7.00 to 8.00; in experiment [1] it was 5.00 to 6.00.

Consider `Cn1cc(-c2cc3c(-c4ccc(NC(=O)Cc5ccccc5Cl)cc4)ncnn3c2)cn1` [Compound 19], for which the pIC50 at D816V Kit was 8.00 to 9.00; in experiment [1], 6.00 to 7.00.

Take `Cn1cc(-c2cc3c(-c4ccc(NC(=O)NCc5ccccc5)cc4)ncnn3c2)cn1` [Compound 9, 1-benzyl-3-(4-(6-(1-methyl-1H-pyrazol-4-yl)pyrrolo[1,2-f][1,2,4]triazin-4-yl)phenyl)urea]: the negative logarithm of the IC50 (pIC50) on D816V Kit is 7.00 to 8.00; in experiment [1], 6.00 to 7.00.

For `Cn1cc(-c2cc3c(-c4ccc(NC(=O)[C@@H](O)c5ccc(Cl)cc5)cc4)ncnn3c2)cn1` [Compound 34, 2-(4-chlorophenyl)-2-hydroxy-N-(4-(6-(1-methyl-1H-pyrazol-4-yl)pyrrolo[1,2-f][1,2,4]triazin-4-yl)phenyl)acetamide], the pIC50 on D816V Kit is 8.00 to 9.00; in experiment [1], 7.00 to 8.00.

In the case of `O=S(=O)(Nc1ccc(-c2ncnn3cc(-c4ccc(F)cc4)cc23)cc1)c1ccc(Cl)cc1` [Compound 55], the figures for the pIC50 (on D816V Kit; in experiment [1]) were < 7.00 and 5.00 to 6.00, respectively.

`CC(C)(C)Oc1ccc(-c2cc3c(-c4ccc(NC(=O)Cc5ccc(Cl)cc5)cc4)ncnn3c2)cc1` [Compound 61]: the results for the pIC50 (on D816V Kit; in experiment [1]) were 7.00 to 8.00 and 5.00 to 6.00, respectively.

`Cn1cc(-c2cc3c(-c4ccc(NC(=O)Cc5cccnc5)cc4)ncnn3c2)cn1` [Compound 4]: the pIC50 on D816V Kit was 8.00 to 9.00; in experiment [1], 5.00 to 6.00.

Consider `C[C@H](C(=O)Nc1ccc(-c2ncnn3cc(-c4cnn(C)c4)cc23)cc1)c1ccc(Cl)cc1` [Compound 30], for which the pIC50 at D816V Kit is 7.00 to 8.00; in experiment [1] it was 6.00 to 7.00.

As for `CC[C@@H](C(=O)Nc1ccc(-c2ncnn3cc(-c4cnn(C)c4)cc23)cc1)c1ccc(Cl)cc1` [Compound 42], the pIC50 was 8.00 to 9.00 at D816V Kit and > 8.00 in experiment [1].

For the molecule `Cc1ccc(S(=O)(=O)Nc2ccc(-c3ncnn4cc(-c5cnn(C)c5)cc34)cc2)cc1` [Compound 22], the pIC50 was 8.00 to 9.00 on D816V Kit and 7.00 to 8.00 in experiment [1].

Turning to `Cn1cc(-c2cc3c(-c4ccc(NC(=O)Cc5ccc(Cl)cc5)cc4)ncnn3c2)cn1` [Compound 17], the values for the pIC50 (at D816V Kit; in experiment [1]) were 8.00 to 9.00 and 7.00 to 8.00, respectively.

As to `Cn1cc(-c2cc3c(-c4ccc(NC(=O)Cc5ccc(Cl)cc5Cl)cc4)ncnn3c2)cn1` [Compound 54], the pIC50 is 8.00 to 9.00 at D816V Kit and > 8.00 in experiment [1].

For the molecule `Cn1cc(-c2cc3c(-c4ccc(NC(=O)Cc5cccc(Cl)c5)cc4)ncnn3c2)cn1` [Compound 18], the negative-log IC50 (pIC50) on D816V Kit was 8.00 to 9.00; in experiment [1], 6.00 to 7.00.

`Cn1cc(-c2cc3c(-c4ccc(NC(=O)Cc5c[nH]c6ccccc56)cc4)ncnn3c2)cn1` [Compound 23]: the values for the pIC50 (at D816V Kit; in experiment [1]) were 8.00 to 9.00 and 7.00 to 8.00, respectively.

Values taken from patent US10000496B2, “Compositions useful for treating disorders related to kit and PDGFR” (BLUEPRINT MEDICINES CORPORATION, priority 2015, dated 2018).
